Measurements taken from patent publication US9205091B2, “Diazeniumdiolated compounds, pharmaceutical compositions, and method of treating cancer” (The United States of America, as represented by the …, priority 2009, dated 2015).

Legend:
H2122/CRL5985 = assay: MTT proliferation assay, JS-K 48 h (Example 3); assay type: cell-based, human; conditions: 10 concentrations 50 nM to 50 μM
Procedure: (§1) JS-K is synthesized as described previously (Saavedra et al., J. Org. Chem., 66: 3090-3098(2001)). Cell lines are obtained from the American Type Culture Collection (Manassas, Va.) and cultured according to the supplier's protocol. For proliferation assays cells are seeded at 2×10^4 per well in 96-well plates and allowed to adhere for 24 h. JS-K is prepared as 10 mM stock solution in DMSO. Increasing drug concentrations in 10 μL of PBS are added to 100 μL of the culture medium for 48 h. MTT assay (Promega, Madison, Wis.) is performed according to the manufacturer's protocol. Each concentration is represented in six repeats, and the screening is performed as at least two independent experiments. IC50 values are calculated using Sigma Plot software (Systat Software, Chicago, Ill.).

H1703/CRL5889 = assay: MTT proliferation assay, JS-K 48 h (Example 3); assay type: cell-based, human; conditions: 10 concentrations 50 nM to 50 μM
Procedure: as §1

H2030/CRL5914 = assay: MTT proliferation assay, JS-K 48 h (Example 3); assay type: cell-based, human; conditions: 10 concentrations 50 nM to 50 μM
Procedure: as §1

H1568/CRL5876 = assay: MTT proliferation assay, JS-K 48 h (Example 3); assay type: cell-based, human; conditions: 10 concentrations 50 nM to 50 μM
Procedure: as §1

H322/CRL5806 = assay: MTT proliferation assay, JS-K 48 h (Example 3); assay type: cell-based, human; conditions: 10 concentrations 50 nM to 50 μM
Procedure: as §1

H1693/CRL5887 = assay: MTT proliferation assay, JS-K 48 h (Example 3); assay type: cell-based, human; conditions: 10 concentrations 50 nM to 50 μM
Procedure: as §1

A549/CCL185 = assay: MTT proliferation assay, JS-K 48 h (Example 3); assay type: cell-based, human; conditions: 10 concentrations 50 nM to 50 μM
Procedure: as §1

H838/CRL5844 = assay: MTT proliferation assay, JS-K 48 h (Example 3); assay type: cell-based, human; conditions: 10 concentrations 50 nM to 50 μM
Procedure: as §1

H1395/CRL5868 = assay: MTT proliferation assay, JS-K 48 h (Example 3); assay type: cell-based, human; conditions: 10 concentrations 50 nM to 50 μM
Procedure: as §1

H1792/CRL5895 = assay: MTT proliferation assay, JS-K 48 h (Example 3); assay type: cell-based, human; conditions: 10 concentrations 50 nM to 50 μM
Procedure: as §1

H1355/CRL5865 = assay: MTT proliferation assay, JS-K 48 h (Example 3); assay type: cell-based, human; conditions: 10 concentrations 50 nM to 50 μM
Procedure: as §1

H2023/CRL5912 = assay: MTT proliferation assay, JS-K 48 h (Example 3); assay type: cell-based, human; conditions: 10 concentrations 50 nM to 50 μM
Procedure: as §1

H1734/CRL5891 = assay: MTT proliferation assay, JS-K 48 h (Example 3); assay type: cell-based, human; conditions: 10 concentrations 50 nM to 50 μM
Procedure: as §1

H441/HTB174 = assay: MTT proliferation assay, JS-K 48 h (Example 3); assay type: cell-based, human; conditions: 10 concentrations 50 nM to 50 μM
Procedure: as §1

H2126/CRL5925 = assay: MTT proliferation assay, JS-K 48 h (Example 3); assay type: cell-based, human; conditions: 10 concentrations 50 nM to 50 μM
Procedure: as §1

H1944/CRL5907 = assay: MTT proliferation assay, JS-K 48 h (Example 3); assay type: cell-based, human; conditions: 10 concentrations 50 nM to 50 μM
Procedure: as §1

H1373/CRL5866 = assay: MTT proliferation assay, JS-K 48 h (Example 3); assay type: cell-based, human; conditions: 10 concentrations 50 nM to 50 μM
Procedure: as §1

H460/HTB177 = assay: MTT proliferation assay, JS-K 48 h (Example 3); assay type: cell-based, human; conditions: 10 concentrations 50 nM to 50 μM
Procedure: as §1

H1703 cells = assay: Intracellular nitric oxide, DAF-FM diacetate; assay type: cell-based, human; conditions: 1 μM, up to 60 min
Procedure: (§2) Cells growing on 6-well plates are loaded with 2.5 μM DAF-FM diacetate in HBSS at 37° C. and 5% CO2. After 30 min of incubation the cells are rinsed with HBSS to remove excess probe, and JS-K in fresh HBSS is added to the cells at 1 μM final concentration. After 30 or 60 min incubation the fluorescence of the benzotriazole derivative formed on DAF-FM's reaction with aerobic NO is analyzed using a Perkin Elmer LS50B luminescence spectrometer with the excitation source at 495 nm and emission at 515 nm. All experiments are performed at least three times, each time in triplicate.

H1944 cells = assay: Intracellular nitric oxide, DAF-FM diacetate; assay type: cell-based, human; conditions: 1 μM, up to 60 min
Procedure: as §2

MnSOD = assay: Anti-nitrotyrosine immunoprecipitation, anti-MnSOD immunoblot; assay type: cell-based, human; conditions: H1703 cells, 1 h
Procedure: For immunoprecipitation, 300 μg of the cell lysate is incubated on the rotator overnight at 4° C. with 2 μg of anti-nitrotyrosine mAb and 30 μL of protein G agarose. After washing three times with lysis buffer, the beads are suspended in 30 μL of 2×NuPAGE (Invitrogen, Carlsbad, Calif.) loading buffer and heated for 10 min at 95° C. Immunoprecipitated material is resolved on SDS-PAGE followed by immunoblotting with anti-MnSOD antibody.
Western blot analysis is performed as previously described (Romanowska et al., Free Radical Biol. Med., 43:1145-1155 (2007)). Primary antibodies for caspases 3, 7, PARP and cleaved PARP, Bax, cytochrome c (Cell Signaling Technology, Danvers, Mass.), peroxiredoxins 1-6 (LabFrontier, Seoul, Korea), and nitrotyrosine and MnSOD (Millipore, Billerica, Mass.) are used.

NSCLC cell lines = assay: MTT proliferation assay, JS-K, NSCLC panel summary; assay type: cell-based, human; conditions: six cell lines; read-out: IC50 range of the sensitive cell lines
Procedure: as §1

[1] = test system: IL-1β, IL-2, IL-4, IL-5, IL-10, IL-12t, IFNγ or TNFα; assay: Serum cytokines, mouse Th1/2 multiplex assay; assay type: in vivo, mice; conditions: serum at termination; 6 μmol/kg i.v., three times a week for three weeks
Procedure: H1944 or H1703 cells are injected at 5×10^6 s.c. into a flank of 7-week-old female athymic NCr-nu/nu mice (Charles River, Wilmington, Mass.). The drug injections are initiated when the tumors reached 2×2×2 mm (typically 3-4 weeks). JS-K is formulated in Pluronic P123 (P123) (BASF, Florham Park, N.J.) micelles. Animals are treated three times a week for three weeks with i.v. tail vein injections of either vehicle (2.25% P123 in PBS) or JS-K (6 μmol/kg in the vehicle). Tumors are measured using a caliper twice a week, and the tumor volumes are calculated using a formula for ellipsoid volume, π/6×L×W×H (Tomayko and Reynolds, 1989). The non-parametric Mann-Whitney test is utilized for statistical comparisons of tumor volumes at each time point. Body weights are taken before each drug injection. Animals are sacrificed 2 h after the last drug injection. Blood is collected by cardiac puncture under isoflurane anesthesia, for testing for cytokines. Cytokines in serum are measured using a mouse Th1/2 multiplex assay (Meso Scale Discovery, Gaithersburg, Md.), according to the manufacturer's protocol. There were 9-13 mice/group at termination.

CCOC(=O)N1CCN(/[N+]([O-])=N/Oc2ccc([N+](=O)[O-])cc2[N+](=O)[O-])CC1 [Compound 1]
IC50 (H2122/CRL5985): 6.09 µM
IC50 (H1703/CRL5889): 0.4 µM
IC50 (H2030/CRL5914): 14.7 µM
IC50 (H1568/CRL5876): 0.4 µM
IC50 (H322/CRL5806): 8.71 µM
IC50 (H1693/CRL5887): 0.33 µM
IC50 (A549/CCL185): 7.6 µM
IC50 (H838/CRL5844): 5.84 µM
IC50 (H1395/CRL5868): 3.17 µM
IC50 (H1792/CRL5895): 9.08 µM
IC50 (H1355/CRL5865): 7.93 µM
IC50 (H2023/CRL5912): 11.6 µM
IC50 (H1734/CRL5891): 0.36 µM
IC50 (H441/HTB174): 1.01 µM
IC50 (H2126/CRL5925): 4.13 µM
IC50 (H1944/CRL5907): 17.6 µM
IC50 (H1373/CRL5866): 0.97 µM
IC50 (H460/HTB177): 7.61 µM
intracellular NO (H1703 cells): increase
intracellular NO (H1944 cells): increase
nitrotyrosine level in MnSOD (MnSOD): increase
IC50 (NSCLC cell lines): 0.33 to 1.01 µM
serum cytokine levels, treated vs control groups [1]: no significant differences
